# Data: patent publication US20060275854A1, “Method for monitoring reactions in real time” (priority 2003, published 2006)
# Entries after “also recorded” stand apart in the source; their conditions may differ.
# How the values were obtained:
# [1] = test system: porcine ALP; conditions: 0.1 mM compound, 0.75 mM AMP, FIG. 5A
# Protocol: The resulting mixture was incubated for another 10 min, followed by the addition of 5 units of porcine ALP (resulting in a concentration of 0.01 units/μL) and further incubation for 75 more minutes. The fluorescence intensity (FALP) was monitored continuously. For the same compound, the fluorescence intensity (FNoALP) of a control reaction with the addition of porcine ALP was also recorded in the same way.
# [2] = molecular target: porcine ALP; conditions: known inhibitors; cited from earlier work
# [3] = test system: calf intestine ALP; conditions: known; cited from earlier work
# [4] = test system: anti-ATP signaling aptamer; test: Fluorescence signaling of the structure-switching ATP aptamer reporter on target addition; type: binding; conditions: for fluorescence intensity increase over the background reading: 750 μM target, FIG. 1B
# [5] = test system: Adenosine Deaminase (ADA); test: Adenosine deaminase activity and inhibition monitored by signaling aptamer; type: biochemical
# Protocol: Adenosine deaminase transforms adenosine into inosine. […] Thus conversion from adenosine to inosine results in a decrease in fluorescent signal. […] EHNA is a known inhibitor of adenosine deaminase.
# After 3 minutes, different concentrations of EHNA.HC1, an adenosine deaminase inhibitor, in DMSO were introduced: no inhibitor (blue line), 100 nM inhibitor (green line) and 10 μM inhibitor (red line). The solutions were further incubated for 5 more minutes. […] Finally, the solutions were exposed to an enzyme, called Adenosine Deaminase (ADA), which transforms adenosine into inosine. The aptamer has no affinity for the inosine, so the transformation should induce the disruption of the aptamer—adenosine complex state and the formation of a duplex state with the QDNA.
smiles,measurement,setting,value
"Cl.c1ccc(C2CN3CCSC3=N2)cc1 (racemic) [Tetramisole, (±) 2,3,5,6-Tetrahydro-6-phenylimidazo[2,1-b]thiazole hydrochloride]",rate of transformation of AMP to adenosine relative to the uninhibited reaction,[1],considerably reduced
same,Ki,[2],low mM range
same,inhibition of calf intestine ALP (in words),[3],not calf intestine ALP
"Cl.c1ccc(C2CN3CCSC3=N2)cc1 (single isomer, unassigned; (-)) [Levamisole, (−) 2,3,5,6-Tetrahydro-6-phenylimidazo[2,1-b]thiazole hydrochloride]",rate of transformation of AMP to adenosine relative to the uninhibited reaction,[1],considerably reduced
same,Ki,[2],low mM range
same,inhibition of calf intestine ALP (in words),[3],not calf intestine ALP
"Nc1ncnc2c1ncn2[C@@H]1O[C@H](COP(=O)(O)OP(=O)(O)O)[C@@H](O)[C@H]1O [ADP, adenosine 5′-diphosphate]",fluorescence intensity increase over the background reading,[4],8.3 fold
"Nc1ncnc2c1ncn2[C@@H]1O[C@H](COP(=O)(O)O)[C@@H](O)[C@H]1O [AMP, adenosine 5′-monophosphate]",affinity of the signaling aptamer for the substance (in words),[4],moderate affinity
same,fluorescence intensity increase over the background reading,[4],5.3 fold
"Nc1ncnc2c1ncn2[C@@H]1O[C@H](COP(=O)(O)OP(=O)(O)OP(=O)(O)O)[C@@H](O)[C@H]1O [ATP, adenosine 5′-triphosphate]",fluorescence intensity increase over the background reading,[4],6.9 fold
CCCCCC[C@@H]([C@@H](C)O)n1cnc2c(N)ncnc21.Cl [EHNA],rate of deamination,"[5]; 100 nM inhibitor, 1 mM adenosine",slower
same,rate of deamination,"[5]; 10 μM inhibitor, 1 mM adenosine",virtually stopped
same,rate of deamination,"[5]; 10 μM inhibitor, 1 mM adenosine, listed as EHNA.HC1",almost no deamination
same,rate of deamination,"[5]; 100 mM EHNA, FIG. 6",reduced
Nc1ncnc2c1ncn2[C@@H]1O[C@H](CO)[C@@H](O)[C@H]1O [adenosine],affinity of the signaling aptamer for the substance (in words),[4],higher affinity
same,fluorescence intensity increase over the background reading,[4],8.1 fold
OC[C@H]1O[C@@H](n2cnc3c(O)ncnc32)[C@H](O)[C@@H]1O [inosine],affinity of the signaling aptamer for the substance (in words),[4],virtually no affinity; also recorded: no affinity at all
